{"source": "patent US11872216B2", "about": "“Pharmaceutical formulation comprising cineole and amoxicillin” (priority 2016, dated 2024)", "type_in_all_cases": "cell-based", "key": {"[1]": {"test_system": "BSBL Klebsiella pneumoniae H1893", "assay": "Microplate microdilution growth inhibition (PIC, MIC, FIC-index)", "method": "(§1) The six strains tested in this study are purified clinical isolates identified in the bacteriology laboratory of the Hassan II university teaching hospital center (CHU, Fes, Morocco). Three of the six bacterial strains tested are strains of BSBL Escherichia coli (P956, P933 and P7847) and the other three bacterial strains tested are strains of BSBL Klebsiella pneumoniae (H1878, H2001 and H1893).\n(§2) For each test performed, precultures of the bacterial strains (frozen beforehand at −20° C.) for 24 h at 37° C. were prepared. From these precultures, bacterial inocula containing 2×10^7 CFU (colony-forming units)/ml were prepared, adjusting the optical density to 540 nm.\n(§3) Amoxicillin (AMX) and cineole were supplied by Sigma Aldrich (France). A stock solution of AMX (400 μg/ml) was prepared after dissolving 40 mg of antibiotic in 100 ml of sterile distilled water. From this stock solution, serial dilutions were performed. The cineole concentrations used were prepared by emulsifying pure cineole in 0.2% (v/v) of agar-agar according to the method described by Remmal A et al. (J. Essent. Oil. Res [Book], 1993, 5: pages 1179-1184).\n(§4) The partial inhibitory concentrations (PIC) are the concentrations of antibacterial agents which inhibit the growth of a given percentage (90%, 75%, 50%, 40% . . . ) of the bacterial population studied. The PICs of AMX and cineole with respect to the six bacterial strains used were determined via a microplate microdilution technique based on the monitoring of the bacterial growth by measuring the optical density (Casey J. T. et al., J. Microbiol. Meth [Book], 2004, 58: pages 327-334; Patton T et al., J. Microbiol. Meth [Book], 2006, 64: pages 84-95).\n(§5) 96-well U-shaped sterile microplates with a capacity of 200 μl were used. For each microplate, two control rows were prepared: • A row containing 200 μl of the MH liquid medium (sterility control and negative control). • A row containing 150 μl of the MH liquid medium and 50 μl of the bacterial inoculum at 2×10^7 CFU/ml (positive control).\n(§6) For AMX and cineole, two rows were prepared containing 100 μl of MH liquid medium, 50 μl of the bacteria inoculum at 2×10^7 CFU/ml and 50 μl of decreasing concentrations of antimicrobial agents. The AMX concentrations used are: 50-25-12.5-6.25-3.1-1.6-0.8-0.4-0.20-0.10-0.05-0.025 μg/ml. The cineole concentrations used are: 100-50-25-12.5-6.25-3.1-1.6-0.8-0.4-0.20-0.10-0.05 μl/ml. The optical densities (OD) were determined at 540 nm using a microplate spectrophotometer (Versamax, Molecular Devices, USA). The OD was measured at time t=0 and after 22 hours of incubation at 30° C. The percentage of inhibition of the antimicrobial agents with respect to each of the six strains was calculated according to Casey J. T. et al. (J. Microbiol. Meth. [Book], 2004, 58: pages 327-334) according to the following formula:\n(§7) With ODT0=OD of the test well at time t=0, ODT22=OD of the test well after 22 h of incubation, ODC0=OD of the positive control well at time t=0, ODC22=OD of the positive control well after 22 h of incubation.\n(§8) After having determined the PICs of AMX and cineole alone, the antibacterial power of the combination of AMX and cineole was evaluated. The same technique of microplate microdilution was used. The AMX-cineole combinations were prepared in sterile tubes as follows: • AMX 50% PIC+cineole 40% PIC • AMX 50% PIC+cineole 30% PIC • AMX 50% PIC+cineole 20% PIC • AMX 25% PIC+cineole 40% PIC • AMX 25% PIC+cineole 30% PIC • AMX 25% PIC+cineole 20% PIC.\n(§9) The fractional inhibitory concentration index (FIC-index) expressing the degree of synergism of the AMX-cineole combination was calculated according to the following formula (Odds F. C. et al., J. Antimicrob. Chemoth. [Book], 2003, 52: page 1).\n(§10) The AMX-cineole combination is considered: • Synergistic when the FIC-index is ≤0.5 • Additive when 0.5<FIC-index <1 • Indifferent when 1<FIC-index <2 • Antagonistic when FIC-index >2. Results"}, "[2]": {"test_system": "BSBL Klebsiella pneumoniae H2001", "assay": "Microplate microdilution growth inhibition (PIC, MIC, FIC-index)", "method": "as §1, §2, §3, §4, §5, §6, §7, §8, §9, §10"}, "[3]": {"test_system": "BSBL Escherichia coli P933", "assay": "Microplate microdilution growth inhibition (PIC, MIC, FIC-index)", "method": "as §1, §2, §3, §4, §5, §6, §7, §8, §9, §10"}, "[4]": {"test_system": "BSBL Escherichia coli P7847", "assay": "Microplate microdilution growth inhibition (PIC, MIC, FIC-index)", "method": "as §1, §2, §3, §4, §5, §6, §7, §8, §9, §10"}, "[5]": {"test_system": "BSBL Escherichia coli P956", "assay": "Microplate microdilution growth inhibition (PIC, MIC, FIC-index)", "method": "as §1, §2, §3, §4, §5, §6, §7, §8, §9, §10"}, "[6]": {"test_system": "BSBL Klebsiella pneumoniae H1878", "assay": "Microplate microdilution growth inhibition (PIC, MIC, FIC-index)", "method": "as §1, §2, §3, §4, §5, §6, §7, §8, §9, §10"}, "[7]": {"test_system": "three strains of BSBL Escherichia coli and three strains of BSBL Klebsiella pneumoniae", "assay": "Microplate microdilution, statements over all six strains tested", "method": "as §1, §2, §3, §4\n96-well U-shaped sterile microplates with a capacity of 200 μl were used. […]\nas §6, with “The AMX concentrations used are: 50-25-12.5-6.25-3.1-1.6-0.8-0.4-0.20-0.10-0.05-0.025 μg/ml. The cineole concentrations used are: 100-50-25-12.5-6.25-3.1-1.6-0.8-0.4-0.20-0.10-0.05 μl/ml.” left out, “formula: […]” for “formula:”\nAfter having determined the PICs of AMX and cineole alone, the antibacterial power of the combination of AMX and cineole was evaluated. […]\nThe fractional inhibitory concentration index (FIC-index) expressing the degree of synergism of the AMX-cineole combination was calculated according to the following formula (Odds F. C. et al., J. Antimicrob. Chemoth. [Book], 2003, 52: page 1). […]"}, "[8]": {"details": "cineole alone, Klebsiella pneumoniae H1893"}, "[9]": {"details": "cineole alone, Klebsiella pneumoniae H2001"}, "[10]": {"details": "cineole alone, Escherichia coli P933"}, "[11]": {"details": "cineole alone, Escherichia coli P7847"}, "[12]": {"details": "cineole alone, Escherichia coli P956"}, "[13]": {"details": "cineole alone, Klebsiella pneumoniae H1878"}}}
{"smiles": "CC1(C)S[C@@H]2[C@H](NC(=O)[C@H](N)c3ccc(O)cc3)C(=O)N2[C@H]1C(=O)O", "note": "[amoxicillin, Amoxicillin]", "values": [{"measurement": "MIC", "setting": "[1]; Klebsiella pneumoniae, K. pneumoniae 111893, read-out: 100% MIC Alone (amoxicillin, first figure of the cell)", "result": 50, "unit": "µg/mL"}, {"measurement": "25% PIC", "setting": "[1]; amoxicillin alone, Klebsiella pneumoniae H1893", "result": "0.8 ± 0.12", "unit": "µg/mL"}, {"measurement": "IC50", "setting": "[1]; amoxicillin alone, Klebsiella pneumoniae H1893, read-out: 50% PIC", "result": "1.7 ± 0.09", "unit": "µg/mL"}, {"measurement": "MIC", "setting": "[2]; Klebsiella pneumoniae, K. pneumoniae 112001, read-out: 100% MIC Alone (amoxicillin, first figure of the cell)", "result": 50, "unit": "µg/mL"}, {"measurement": "25% PIC", "setting": "[2]; amoxicillin alone, Klebsiella pneumoniae H2001", "result": "0.6 ± 0.14", "unit": "µg/mL"}, {"measurement": "IC50", "setting": "[2]; amoxicillin alone, Klebsiella pneumoniae H2001, read-out: 50% PIC", "result": "1.3 ± 0.12", "unit": "µg/mL"}, {"measurement": "MIC", "setting": "[3]; Escherichia coli, E. coli P933, read-out: 100% MIC Alone (amoxicillin, first figure of the cell)", "result": 50, "unit": "µg/mL"}, {"measurement": "25% PIC", "setting": "[3]; amoxicillin alone, Escherichia coli P933", "result": "0.5 ± 0.10", "unit": "µg/mL"}, {"measurement": "IC50", "setting": "[3]; amoxicillin alone, Escherichia coli P933, read-out: 50% PIC", "result": "1.3 ± 0.24", "unit": "µg/mL"}, {"measurement": "MIC", "setting": "[4]; Escherichia coli, E. coli P7847, read-out: 100% MIC Alone (amoxicillin, first figure of the cell)", "result": 50, "unit": "µg/mL"}, {"measurement": "25% PIC", "setting": "[4]; amoxicillin alone, Escherichia coli P7847", "result": "0.8 ± 0.17", "unit": "µg/mL"}, {"measurement": "IC50", "setting": "[4]; amoxicillin alone, Escherichia coli P7847, read-out: 50% PIC", "result": "1.5 ± 0.13", "unit": "µg/mL"}, {"measurement": "MIC", "setting": "[5]; Escherichia coli, E. coli P956, read-out: 100% MIC Alone (amoxicillin, first figure of the cell)", "result": 50, "unit": "µg/mL"}, {"measurement": "25% PIC", "setting": "[5]; amoxicillin alone, Escherichia coli P956", "result": "0.7 ± 0.14", "unit": "µg/mL"}, {"measurement": "IC50", "setting": "[5]; amoxicillin alone, Escherichia coli P956, read-out: 50% PIC", "result": "1.1 ± 0.25", "unit": "µg/mL"}, {"measurement": "MIC", "setting": "[6]; Klebsiella pneumoniae, K. pneumoniae 111878, read-out: 100% MIC Alone (amoxicillin, first figure of the cell)", "result": 50, "unit": "µg/mL"}, {"measurement": "25% PIC", "setting": "[6]; amoxicillin alone, Klebsiella pneumoniae H1878", "result": "0.9 ± 0.09", "unit": "µg/mL"}, {"measurement": "IC50", "setting": "[6]; amoxicillin alone, Klebsiella pneumoniae H1878, read-out: 50% PIC", "result": "1.6 ± 0.17", "unit": "µg/mL"}, {"measurement": "IC50", "setting": "[7]; span over all strains tested, read-out: 50% PIC of AMX", "result": "1.1 to 1.7", "unit": "µg/mL"}, {"measurement": "MIC", "setting": "[7]; three strains of E. coli and three strains of K. pneumoniae, read-out: minimum inhibitory concentrations (MIC, 100% inhibition) of AMX", "result": "~50", "unit": "µg/mL"}]}
{"smiles": "CC12CCC(CC1)C(C)(C)O2", "note": "[cineole, 1,8-cineole]", "values": [{"measurement": "100% MIC Alone (cineole, second figure of the cell)", "setting": "[1]; K. pneumoniae 111893", "result": 100, "unit": "μl/ml"}, {"measurement": "20% PIC", "setting": "[1]; [8]", "result": "0.6 ± 0.12", "unit": "μl/ml"}, {"measurement": "30% PIC", "setting": "[1]; [8]", "result": "2.7 ± 0.09", "unit": "μl/ml"}, {"measurement": "40% PIC", "setting": "[1]; [8]", "result": "6.8 ± 0.09", "unit": "μl/ml"}, {"measurement": "100% MIC Alone (cineole, second figure of the cell)", "setting": "[2]; K. pneumoniae 112001", "result": 100, "unit": "μl/ml"}, {"measurement": "20% PIC", "setting": "[2]; [9]", "result": "0.7 ± 0.09", "unit": "μl/ml"}, {"measurement": "30% PIC", "setting": "[2]; [9]", "result": "3.1 ± 0.10", "unit": "μl/ml"}, {"measurement": "40% PIC", "setting": "[2]; [9]", "result": "6.9 ± 0.12", "unit": "μl/ml"}, {"measurement": "100% MIC Alone (cineole, second figure of the cell)", "setting": "[3]; E. coli P933", "result": 100, "unit": "μl/ml"}, {"measurement": "20% PIC", "setting": "[3]; [10]", "result": "1.3 ± 0.24", "unit": "μl/ml"}, {"measurement": "30% PIC", "setting": "[3]; [10]", "result": "2.3 ± 0.09", "unit": "μl/ml"}, {"measurement": "40% PIC", "setting": "[3]; [10]", "result": "6.8 ± 0.14", "unit": "μl/ml"}, {"measurement": "100% MIC Alone (cineole, second figure of the cell)", "setting": "[4]; E. coli P7847", "result": 100, "unit": "μl/ml"}, {"measurement": "20% PIC", "setting": "[4]; [11]", "result": "1.2 ± 0.11", "unit": "μl/ml"}, {"measurement": "30% PIC", "setting": "[4]; [11]", "result": "2.7 ± 0.12", "unit": "μl/ml"}, {"measurement": "40% PIC", "setting": "[4]; [11]", "result": "6.5 ± 0.10", "unit": "μl/ml"}, {"measurement": "100% MIC Alone (cineole, second figure of the cell)", "setting": "[5]; E. coli P956", "result": 100, "unit": "μl/ml"}, {"measurement": "20% PIC", "setting": "[5]; [12]", "result": "1.2 ± 0.16", "unit": "μl/ml"}, {"measurement": "30% PIC", "setting": "[5]; [12]", "result": "2.6 ± 0.12", "unit": "μl/ml"}, {"measurement": "40% PIC", "setting": "[5]; [12]", "result": "6.2 ± 0.20", "unit": "μl/ml"}, {"measurement": "100% MIC Alone (cineole, second figure of the cell)", "setting": "[6]; K. pneumoniae 111878", "result": 100, "unit": "μl/ml"}, {"measurement": "20% PIC", "setting": "[6]; [13]", "result": "0.4 ± 0.12", "unit": "μl/ml"}, {"measurement": "30% PIC", "setting": "[6]; [13]", "result": "2.9 ± 0.12", "unit": "μl/ml"}, {"measurement": "40% PIC", "setting": "[6]; [13]", "result": "7.1 ± 0.12", "unit": "μl/ml"}, {"measurement": "40% PIC of cineole", "setting": "[7]; span over all strains tested", "result": "6.2-7.1 μl/ml"}, {"measurement": "MICs of cineole", "setting": "[7]; three strains of E. coli and three strains of K. pneumoniae", "result": "~100", "unit": "μl/ml"}]}
